Target: Xanthine dehydrogenase/oxidase (Homo sapiens, UniProt P47989)
Experiment: Inhibitory activity against Xanthine Oxidase

Xanthine dehydrogenase/oxidase, sequence (P47989 whole entry): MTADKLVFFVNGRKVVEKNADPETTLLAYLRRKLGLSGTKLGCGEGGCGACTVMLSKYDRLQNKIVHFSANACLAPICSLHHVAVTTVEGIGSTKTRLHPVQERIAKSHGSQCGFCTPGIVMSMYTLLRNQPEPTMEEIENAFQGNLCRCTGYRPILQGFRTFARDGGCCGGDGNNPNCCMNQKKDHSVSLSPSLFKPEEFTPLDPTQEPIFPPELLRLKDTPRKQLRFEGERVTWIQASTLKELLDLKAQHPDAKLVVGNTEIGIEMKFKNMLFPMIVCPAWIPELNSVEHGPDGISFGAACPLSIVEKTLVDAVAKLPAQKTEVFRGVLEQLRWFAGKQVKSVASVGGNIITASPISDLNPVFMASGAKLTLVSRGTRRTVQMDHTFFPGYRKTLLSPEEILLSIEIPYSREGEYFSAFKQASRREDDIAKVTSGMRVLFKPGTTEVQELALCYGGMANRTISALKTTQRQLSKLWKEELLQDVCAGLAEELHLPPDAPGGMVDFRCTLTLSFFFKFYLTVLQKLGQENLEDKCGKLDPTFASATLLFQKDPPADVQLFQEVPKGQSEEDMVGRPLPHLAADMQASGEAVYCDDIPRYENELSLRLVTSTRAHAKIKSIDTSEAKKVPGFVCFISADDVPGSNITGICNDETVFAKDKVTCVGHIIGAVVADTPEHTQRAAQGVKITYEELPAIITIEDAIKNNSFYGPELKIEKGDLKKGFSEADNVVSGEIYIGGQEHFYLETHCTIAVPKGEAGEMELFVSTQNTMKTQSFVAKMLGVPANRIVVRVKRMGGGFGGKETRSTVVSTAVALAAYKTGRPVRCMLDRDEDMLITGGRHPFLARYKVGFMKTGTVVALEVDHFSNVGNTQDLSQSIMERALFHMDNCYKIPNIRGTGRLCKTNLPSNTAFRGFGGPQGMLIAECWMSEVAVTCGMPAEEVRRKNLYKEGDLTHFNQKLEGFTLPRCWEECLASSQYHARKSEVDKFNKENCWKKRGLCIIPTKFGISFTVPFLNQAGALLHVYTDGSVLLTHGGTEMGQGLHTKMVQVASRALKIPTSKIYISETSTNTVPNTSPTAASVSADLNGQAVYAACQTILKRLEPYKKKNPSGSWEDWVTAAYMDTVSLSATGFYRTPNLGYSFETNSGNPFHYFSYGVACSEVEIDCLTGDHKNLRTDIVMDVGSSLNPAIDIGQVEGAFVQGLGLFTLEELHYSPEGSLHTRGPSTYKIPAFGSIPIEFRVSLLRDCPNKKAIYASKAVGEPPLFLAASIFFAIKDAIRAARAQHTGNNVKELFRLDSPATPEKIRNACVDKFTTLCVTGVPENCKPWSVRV

SMILES | Ki [µM]
CC1CSc2nc3[nH]c(=O)[nH]c3c(=O)n2C1 (configuration not stated) [2-Hydroxy-7-methyl-7,8-dihydro-3H,6H-5-thia-1,3,4,8a-tetraaza-cyclopenta[b]naphthalen-9-one] | > 100
CC1CSc2nc3[nH]c(=S)[nH]c3c(=O)n2C1 (configuration not stated) [2-Mercapto-7-methyl-7,8-dihydro-3H,6H-5-thia-1,3,4,8a-tetraaza-cyclopenta[b]naphthalen-9-one] | > 100
